These results are taken from patent US8481716B2 (Wacker Chemie AG, priority 2004, dated 2013).

Type in all cases: physicochemical
The nature of data set [1]: Temperature stability at 25° C. The following applies: for Content ALA: 25° C. The protocol: Alpha lipic acid/cyclodextrin complexes were stored in a closed polypropylene container at 25° C.
The nature of data set [2]: Temperature stability at 40° C.
Data set [3] is described as follows: Temperature stability at 100° C.
Data set [4] can be described thus: Differential Scanning Calorimetry analysis for uncomplexed alpha-lipoic acid. The following applies: DSC. The protocol: Cyclodextrin complexes (3-6 mg sample size) were analyzed using Differential Scanning Calorimeter (DSC). […] This peak, if present, was compared to a peak at this temperature of pure alpha-lipoic acid to calculate percentage of uncomplexed alpha-lipoic acid in the complex. […] The peak around 60° C. decreases with increasing degree of complexation.
(In DSC, transitions show as peaks or steps in heat flow.)

Where [5] appears, read: closed polypropylene container, 0 days of storage, initial content set to 100%.

For the compound `O=C(O)CCCCC1CCSS1` (stereo not drawn) [Pure ALA, Alpha-lipoic acid], the “stability at room temperature” value in data set [1] (25° C. storage) is recorded as “stable at room temperature”. Moreover, the “Content ALA” value was 100% in data set [1] (39 days of storage); 100% in data set [1] (67 days of storage); 100% in data set [1] (107 days of storage); 100% in data set [1] (setting [5]); 99% in data set [2] (8 days of storage); 48*) % in data set [2] (39 days of storage). The “Content ALA” value was 41*) % in data set [2] (81 days of storage); 100 ^ % in data set [2] (setting [5]); 38% in data set [3] (3 days of storage); 13% in data set [3] (11 days of storage); 4% in data set [3] (28 days of storage); 0% in data set [3] (36 days of storage). The “Content ALA” value in data set [3] (closed glass containers, 0 days of storage, initial content set to 100%) is on record as 100%. Also, the “Non Complexed ALA” value in data set [4] (melting peak around 60° C. compared to pure ALA) is on record as 100%. For the same compound, the “Complexed ALA” value in data set [4] (complexed ALA in product) was determined as 0.0%.
